ChEMBL document CHEMBL3507680, “University of Dundee, Gates Library screen for HepG2 cell viability”

test: Human HepG2 cell viability assay in 384 well format; format: toxicity, cell-based; parameters: dose 125 nL, time 70.5 hour; cytotoxicity at 70.5 h: concentration not given beside the values; conditions: HepG2 cells, read-out: Inhibition

In order of rising cytotoxicity at 70.5 h:
1. c1cnc(NC2COC3(CCN(Cc4cccs4)CC3)C2)nc1 (stereo not drawn)  -97%
2. CC(C)(C)C(=O)Cn1nc(-c2ccccc2F)ccc1=O  -21.7%
3. Cc1cc(C)c(C(=O)NC(CN2CCCC2)c2ccccc2)c(=O)[nH]1 (stereo not drawn)  -20.3%
4. CC(C)n1cnnc1CN(C)C(=O)CCn1cnc2ccccc2c1=O  -17.5%
5. Cc1cc(C)n(CC2CCCN2C(=O)c2ccc3[nH]c(=O)[nH]c3c2)n1 (stereo not drawn)  -17.4%
6. CN(C)C[C@H]1C[C@@H]2CN(C(=O)c3ccno3)C[C@@H]2O1  -16.7%
7. Cn1cc(C2COC3(CCN(C(=O)c4ccsc4)CC3)C2)cn1 (stereo not drawn)  -15.9%
8. O=C1CC(c2ccccc2C(F)(F)F)c2sc(N3CCOCC3)nc2N1 (stereo not drawn)  -13.5%
9. CN(CCSc1ccccc1)C(=O)c1cn2c(n1)CNCC2  -12.8%
10. Cc1cc(N(C)CCCn2cccn2)nc(N)n1  -12.7%
11. COCc1nnc(NC(=O)CN2C(=O)c3ccccc3NC2C(C)C)s1 (stereo not drawn)  -12.3%
12. Cc1cccc(C(=O)N2CCCCC2c2nc(C)cs2)n1 (stereo not drawn)  -12.3%
13. CSCc1noc(CNC(=O)C2CCN(C(=O)C3CCC3)CC2)n1  -11.8%
14. Nc1nc(CCNc2ncnc3c2CCN(C(=O)C2CC2)C3)cs1  -11.6%
15. CN1[C@H]2CC[C@@H]1CN(C(=O)CCc1csc(N)n1)CC2  -11.5%
16. O=c1cc(CSc2nnc[nH]2)nc2sc3c(n12)CCCC3  -10.9%
17. CCN1CCN(C[C@@H]2CN(c3ncc(Cl)cc3F)C[C@@H]2CO)CC1  -10.9%
18. Cc1ccc(OCCSCCn2nc3ccccn3c2=O)cc1  -10.4%
19. CC(C)N1C(=O)CN(CCCO)CC1(C)C  -9.87%
20. COc1cccc(CN(C)Cc2cc(C#N)ccc2F)c1OC  -9.77%
21. Cc1nn(C)c(C)c1NC(=O)CNC(c1ccccc1)C1CCCC1 (stereo not drawn)  -9.64%
22. CN(C)S(=O)(=O)N1CCC2(COCc3cnc(-c4cccnc4)nc32)C1 (stereo not drawn)  -9.11%
23. Oc1cc(CN2CCC(O)(Cn3ccnc3)CC2)nc2c(Cl)cccc12  -9.08%
24. c1cnn(CCC2CCCCN2Cc2cnc(C3CCCCC3)nc2)c1 (stereo not drawn)  -8.97%
25. CC(C)c1nc(CNC2CCN(C(=O)OC(C)(C)C)CC2)cs1  -8.72%
26. Cc1cc(NC(=O)c2ccc(-n3ncc(C#N)c3N)cc2)n(C)n1  -8.66%
27. CCCNC(=O)c1nc2c(o1)CN(C(=O)CN(C)C)C2  -8.52%
28. Cc1nc(Nc2nccs2)cc(C2CCCN2C2CCOCC2)n1 (stereo not drawn)  -8.39%
29. O=C1CN(C(=O)[C@H]2CC[C@]3(CC2)CNC(=O)c2ccccc2O3)CCN1  -8.28%
30. Cn1cnnc1S(=O)(=O)C1CCN(S(=O)(=O)c2c(Cl)cccc2Cl)CC1  -8.23%
31. Cc1c(CS(C)(=O)=O)cccc1NCCCC1CCCC1  -7.83%
32. CCN1CC2(CCCCN2C(=O)C2CCCCC2)CC1=O (stereo not drawn)  -7.76%
33. C1CN(CC2CCOCC2)Cc2c(COCC3CC3)nnn2C1  -7.76%
34. CS(=O)(=O)N1CCCCC1c1ccc(Nc2cnccn2)nc1 (stereo not drawn)  -7.53%
35. CNc1cc2c(nn1)CCN(C(=O)c1cc(C)no1)C2  -7.41%
36. CN(C)C(=O)N1CCC2(CC1)C(c1cnn(C)c1)CC(=O)N2C (stereo not drawn)  -7.08%
37. Cc1c(Cl)cccc1NC(=O)CCNc1ccc(C#N)cn1  -6.94%
38. CC(C)c1nnc2n1CCN(CC(=O)Nc1nncs1)C2  -6.91%
39. Cc1nn(C)c2ncc(NC(=O)N3CCNC(=O)C3)cc12  -6.74%
40. COc1cccc(N2CCN(Cc3cccc(CCN)c3)CC2=O)c1  -6.65%
41. Cc1noc(CSc2ccc(C(F)(F)F)cn2)n1  -6.64%
42. Cc1cccc2c1ccn2CC(=O)NC[C@@H]1CCCN2CCCC[C@H]12  -6.63%
43. CCc1nnc2n1CCN(C(=O)c1csc(-c3cnn(C)c3)n1)C2  -6.07%
44. Cc1ncsc1C(=O)NCc1cccnc1N(C)CCc1ccccn1  -5.9%
45. CC(=O)Nc1cccc(C(=O)Nc2cnc3n2CCCC3)c1  -5.75%
46. O=C(Nc1nccs1)C1CCCN1Cc1ccccn1 (stereo not drawn)  -5.74%
47. CCC(=O)N1CCN(C(=O)CCn2cc(Cl)cn2)[C@H]2CS(=O)(=O)C[C@H]21  -5.55%
48. Cn1cc(C(=O)Nc2cccc(CCN3CCCC3)c2)ccc1=O  -5.46%
49. O=C(NCC1CCOC1)c1ccc(OCC(F)(F)F)nc1 (stereo not drawn)  -5.4%
50. O=C(c1ccc[nH]1)N1CCCn2c(CN3CCCCC3)nnc2C1  -5.4%
51. CC1c2cccn2CCN1C(=O)CCc1nc(-c2ccccc2)no1 (stereo not drawn)  -5.32%
52. Cc1nnc(C(C)NCC2(c3ccc(F)cc3)CCCCC2)o1 (stereo not drawn)  -5.27%
53. CN1CC(=O)N(C2CCNC2)Cc2c(NC3CCCC3)ncnc21 (stereo not drawn)  -5.19%
54. CCc1nc(N2CCN(Cc3ncccc3C)CC2)c2cnn(C)c2n1  -4.75%
55. CC(C)(O)c1cn(C2CCN(C(=O)CCc3ccncc3)CC2)nn1  -4.73%
56. O=C(O)c1cc(-c2ccncc2)cc(S(=O)(=O)NCc2ccccn2)c1  -4.27%
57. Cc1cnc(C)c(Oc2ccc(CN3CCCC3)cc2Cl)n1  -4.06%
58. CC(C(=O)NCc1ccc(N2CCCCC2)nc1)n1cncn1 (stereo not drawn)  -3.82%
59. Cc1cccc(-c2noc([C@@H]3C[C@@H](O)CN3C3CCOCC3)n2)c1  -3.79%
60. CCCn1nccc1-c1cnc(CC2CCN(C(C)=O)C2)cn1 (stereo not drawn)  -3.63%
61. CN1CCO[C@H]2CN(C(=O)c3ccncc3F)C[C@H]21  -3.39%
62. Cc1csc(N2CCN(C(=O)CCc3ccccn3)CC2)n1  -2.58%
63. Cn1cccc1CN1CCC2(CCCN(C(=O)c3cccnc3)C2)CC1  -2.44%
64. Cc1noc(C)c1-c1ccnc(C2CCNCC2)c1  -2.34%
65. CCc1ccc2c(c1)C(CCNC(=O)CCc1ccsc1)C(=O)N2 (stereo not drawn)  -2.26%
66. COc1ccc(CN2CCCC2)cc1Oc1cccc(C#N)n1  -2.11%
67. CNC(=O)NCC1CCC2(CCN(C(=O)c3ccccc3)CC2)CO1 (stereo not drawn)  -2.1%
68. Cc1nn(C)cc1-c1cc(C(F)(F)F)nn1CCC#N  -1.92%
69. CC(=O)N1CC[C@@H]2CN(Cc3cccc(Cl)c3)S(=O)(=O)[C@@H]2CC1  -1.91%
70. CCOCCCNC(=O)c1cc(OC)c2ccoc2c1  -1.75%
71. Cc1nc2c(c(=O)n1C)CN(C(=O)C1CCN(C(=O)C3CCC3)CC1)C2  -1.69%
72. Cc1cccc(NCc2nc(C)ccc2O)c1  -1.28%
73. CN(C)C1CCCN(C(=O)NCCNC(=O)C2CCCC2)C1 (stereo not drawn)  -1.02%
74. c1cnn(CC2CCN(c3nc(C4CC4)nc4c3CCNCC4)CC2)c1  -0.96%
75. O=C(c1cccs1)N1CCc2c(nc(N3CCCCC3)[nH]c2=O)C1  -0.672%
76. CC(=O)NCC(=O)N1CCCC(C(=O)c2ccc(C(C)(C)C)cc2)C1 (stereo not drawn)  -0.592%
77. CCOc1ccccc1CC(=O)N1C[C@H](C2CC2)[C@@H](N)C1  -0.519%
78. CC(C)c1nn(C)c(N(C)C)c1CNCc1ccnc(N(C)C)c1  -0.315%
79. CN1CCOC(CNCc2coc(-c3ccccc3)n2)C1 (stereo not drawn)  -0.149%
80. CCCc1nc(CNc2cc(CS(C)(=O)=O)ccc2Cl)no1  -0.135%
81. CCOC(C)c1nccn1CC(=O)Nc1cc(C)on1 (stereo not drawn)  -0.0484%
82. CC(=O)Nc1cccc(OCCNC(=O)N(C)Cc2ccco2)c1  0.512%
83. Cn1cc(CN2CCC(CCC(=O)NC3CC3)CC2)cn1  0.934%
84. O=C(NC1CC1)c1nc2c(o1)CN(c1ncccn1)C2  1.1%
85. CN(Cc1nc(-c2ccccc2)no1)Cc1cnc(N2CCOCC2)s1  1.48%
86. COCc1nn(CC2CC2)c2c1CN(Cc1cncn1C)CC2  2.02%
87. CN(C)C(=O)Cc1ccccc1NCc1noc(-c2ccccc2)n1  2.37%
88. NC(=O)C1CCC(NC(=O)COc2ccc(Cl)c(Cl)c2)CC1 (stereo not drawn)  2.5%
89. CC(=O)N1CCCC1c1nnc2n1CCCCC2 (stereo not drawn)  2.96%
90. Cc1nc(CCCNC(=O)C2CC(=O)N(C3CC3)C2)sc1C (stereo not drawn)  3.65%
91. O=C(c1cc(Cl)c[nH]1)N1CCCC(c2cc(C(F)(F)F)[nH]n2)C1 (stereo not drawn)  3.82%
92. CCc1c(C)nc(N)nc1N1CCCC(c2nc(CCOC)no2)C1 (stereo not drawn)  4.51%
93. CCCN1CCCn2nc(CNS(=O)(=O)c3ccc(F)cc3)cc2C1  4.7%
94. O=C1CC2(CCCCN2C(=O)c2ccccc2)CN1CC1CC1 (stereo not drawn)  4.75%
95. CCOc1ccc2[nH]c(=O)c(CN(C)CCc3cn[nH]c3)cc2c1  4.91%
96. CC(=O)N1CCN(C(=O)c2[nH]nnc2Nc2ccccc2F)CC1  8.05%
97. CC(C)OCCN1CCN(c2ccc(CN(C)C)cn2)CC1  8.47%
98. OC(CN(Cc1ccccc1)Cc1cccnc1)c1cccs1 (stereo not drawn)  10%
99. c1cnnc(N2CCCC2CNCc2nc(-c3ccoc3)no2)c1 (stereo not drawn)  10%
100. CCc1nc(C(=O)N2CCCC2)nn1-c1ccccc1Cl  10.2%
101. CC(C)Nc1ncnc2c1CCN(C(=O)N1CCOCC1)CC2  10.6%
102. Cc1cnc(N2CCCC(O)C2)nc1-c1ccnn1C (stereo not drawn)  10.8%
103. Cn1cc(C(=O)Nc2cccc(-c3ccc4c(c3)CCO4)n2)ccc1=O  12%
104. CC(NC(=O)NCc1ccoc1)c1ccc2c(c1)CCC(=O)N2 (stereo not drawn)  14.8%
105. COc1cccc2c1ccn2CCC(=O)N1CCCC(C(=O)O)C1 (stereo not drawn)  18.7%
106. CC(C)N1CCC(c2cnc(-c3cncnc3)cn2)CC1  21.3%
107. CC1CCN(C(=O)CSc2nc3c(cnn3CCO)c(=O)[nH]2)CC1  22.7%
108. CCOC(=O)N1CCN(C(=O)c2sc(-c3ccncc3)nc2C)CC1  23.5%
109. O=C(CCn1cccn1)NCC(c1cccs1)N1CCOCC1 (stereo not drawn)  25.6%
110. O=C(c1cnccn1)N1CCC2(CC1)CC(Oc1ccccc1)CO2 (stereo not drawn)  25.9%
111. O=C1CN(CC2CC2)Cc2nc(NCCc3ccccn3)sc21  26.4%
112. Cc1ccc(CN2CCC3(CC(C(=O)NCC4CC4)=NO3)C2)cc1C (stereo not drawn)  27.5%
113. N[C@H]1CN(C(=O)CCc2cc(Cl)no2)C[C@@H]1c1ccccc1  29%
